Reference: patent US12558363B2, “Compositions for clinical complications associated to devices implanted in the urinary tract” (Devicare SL, priority 2019, dated 2026)
Values joined by “and” are separate entries in the source; they are usually repeats but may differ in a detail not shown here. Equal entries are not always repeated. “Also recorded” adds a separate entry of the source.

How the values were obtained:
Mucin = experiment: Conditioning film generation: accumulated protein on medical device fragment in continuous flow artificial urine system (Lowry); details: for Quantity of accumulated protein (Mucin), Experiment 1 / Quantity of accumulated protein (Mucin), Experiment 2: 48 hours irrigation of Tygon fragment, pH 6.5; for Quantity of accumulated protein (Mucin), Experiment 1 / Quantity of accumulated protein (Mucin), Experiment 2 / Quantity of accumulated protein (Mucin), Average: NAC 20 mg/L and/or phytate 2 ppm; for Quantity of accumulated protein (Mucin), Average: average of Experiments 1 and 2, 48 hours; for Reduction in the precipitation of protein, compounds tested individually: phytate 2 ppm or NAC 20 mg/L alone, compared with the combination
[1] = Struvite crystal formation/adhesion on catheter portions in artificial urine; details: for Struvite crystals formation ratio (crystals without phytate divided by crystals with phytate) / # struvite crystals with phytate (2 ppm): phytate 2 ppm; for # struvite crystals with phytate (2 ppm): pH 7.2, 37° C., not washed catheter portion
[2] = tested on: Pseudomonas aeruginosa PAO1; format: cell-based; details: 24 h

Row | Compound | Quantity of accumulated protein (Mucin), Experiment 1 (Mucin) | Quantity of accumulated protein (Mucin), Experiment 2 (Mucin) | Quantity of accumulated protein (Mucin), Average (Mucin) | Reduction in the precipitation of protein, compounds tested individually (Mucin) | Struvite crystals adhered in catheters ([1]; 9.28 g/L NH4+, 1 ppm phytate (FIG. 3B)) | Struvite crystals adhered in catheters ([1]; 18.56 g/L NH4+, 1 ppm phytate (FIG. 3D)) | Size of struvite crystals formed (electron microscopy) ([1]; 24 h) | Struvite crystals formation ratio (crystals without phytate divided by crystals with phytate) ([1]; time of reaction 12 hours) | # struvite crystals with phytate (2 ppm) ([1]; time of reaction 12 hours) | Struvite crystals formation ratio (crystals without phytate divided by crystals with phytate) ([1]; time of reaction 24 hours) | # struvite crystals with phytate (2 ppm) ([1]; time of reaction 24 hours) | Number of adhered bacteria in the surface of incubated catheters [2]
1 | CC(=O)N[C@@H](CS)C(=O)O [NAC, N-acetylcysteine, reference compound] | 30.0 mg/L | 66.5 mg/L | 48.3 mg/L | a reduction in the precipitation was observed but of less intensity | – | – | – | – | – | – | – | –
2 | O=P(O)(O)O[C@H]1[C@H](OP(=O)(O)O)[C@@H](OP(=O)(O)O)[C@H](OP(=O)(O)O)[C@@H](OP(=O)(O)O)[C@H]1OP(=O)(O)O [phytate, myo-inositol-hexaphosphate] | 33.0 mg/L | 57.5 mg/L | 45.3 mg/L | a reduction in the precipitation was observed but of less intensity | 2 crystals | 5 crystals | smaller than the crystals formed in absence of phytate | 1.45 | 20 | 3.85 and 2.4 | 6.5 and 5 | significative decrease; also recorded: lower
